From patent publication US20240376090A1, “ISOXAZOLE DERIVATIVES AS MODULATORS OF THE 5-HT2A SEROTONIN RECEPTOR USEFUL FOR THE TREATMENT OF DISORDERED RELATED THERETO” (Arena Pharmaceuticals, Inc., priority 2020, published 2024)

Tests used:
5-HT2B receptor = 5-HT2B receptor (Homo sapiens (Human), UniProt P41595); experiment: HTRF IP-One antagonist assay, 5-HT2B; assay type: cell-based; conditions: HEK293 cells stably expressing recombinant human receptor; IP accumulation with 80 nM 5-HT
Protocol: (§1) HEK293 cells stably expressing 5-HT2 receptors were generated using standard procedures. Cells were dilution cloned and clonal cell lines stably expressing the receptors at low levels were selected for pharmacology studies. In radioligand binding studies using a variety of radiolabeled probes, receptor densities in the 2A, 2B and 2C cell lines were estimated to be 50-70, 150-200, and 10-20 fmol/mg, respectively.
(§2) Inositol phosphate accumulation assays were performed using the HTRF IP-One assay system developed by Cisbio and generally followed the manufacturer's instructions. Briefly, HEK293 cells stably expressing recombinant human receptors were harvested and resuspended in phenol-red free OptiMEM (ThermoFisher), plated into 384-well assay plates (Perkin Elmer, ProxiPlate-Plus® Cat #6008280) at 10,000 cells/well in a volume of 10 μL/well, and incubated overnight at 37° C., 5% CO2. Test compounds were solubilized and serially diluted in DMSO, and then diluted into Assay Buffer (Tris HCl 20 mM, NaCl 150 mM, LiCl 40 mM, pargyline 25 μM, pH 8) containing 80 nM 5-HT. Test compounds were added to the cells (4 μL/well addition, maximal final assay concentration typically 10 μM) and plates, incubated for 2 hrs at 37° C./5% CO2 and then removed from the incubator and allowed to cool to room temperature for 30 minutes prior to addition of IP-One detection reagents. IP-One detection reagents (6 μL/well) were added and plates incubated for 1 hr at room temperature before reading on an HTRF compatible reader such as a Perkin Elmer EnVision® or BMG PheraStar®. Dose-response experiments utilized 10-point curves, typically starting at 10 μM, with 5-fold serial dilutions. Experiments were performed with triplicate data points and independent replicate experiments were performed to ensure data consistency.

5-HT2A receptor [1] = target: T1, 5-HT2A receptor (Homo sapiens (Human), UniProt P28223); experiment: HTRF IP-One antagonist assay, 5-HT2A; assay type: cell-based; conditions: HEK293 cells stably expressing recombinant human receptor; IP accumulation with 80 nM 5-HT
Protocol: as §1, §2

5-HT2C receptor = 5-HT2C receptor (Homo sapiens (Human), UniProt P28335); experiment: HTRF IP-One antagonist assay, 5-HT2C; assay type: cell-based; conditions: HEK293 cells stably expressing recombinant human receptor; IP accumulation with 80 nM 5-HT
Protocol: as §1, §2

5-HT2A receptor [2] = target: T1, 5-HT2A receptor; experiment: Radioligand binding assay ([3H]5-HT competition), 5-HT2A; conditions: [3H]5-HT radioligand, membranes of HEK293 cells expressing recombinant 5-HT2A; Ki from IC50 by Cheng-Prusoff; read-out: 5-HT2A serotonin binding Ki value

T1 sequence (P28223 whole entry): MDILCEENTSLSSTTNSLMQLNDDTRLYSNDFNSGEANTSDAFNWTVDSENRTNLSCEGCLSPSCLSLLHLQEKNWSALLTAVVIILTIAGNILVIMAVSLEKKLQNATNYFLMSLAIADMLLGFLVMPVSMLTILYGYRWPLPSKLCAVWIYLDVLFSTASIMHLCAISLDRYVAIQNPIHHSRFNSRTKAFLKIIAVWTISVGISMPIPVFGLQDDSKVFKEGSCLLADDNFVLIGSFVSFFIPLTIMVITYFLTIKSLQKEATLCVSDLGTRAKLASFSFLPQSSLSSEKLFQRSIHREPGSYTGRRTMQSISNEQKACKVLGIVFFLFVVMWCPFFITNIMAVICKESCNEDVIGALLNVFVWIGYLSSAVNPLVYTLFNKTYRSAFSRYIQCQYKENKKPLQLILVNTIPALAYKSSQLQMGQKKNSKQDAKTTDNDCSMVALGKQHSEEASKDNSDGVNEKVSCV
5-HT2C receptor, sequence (P28335 33-458): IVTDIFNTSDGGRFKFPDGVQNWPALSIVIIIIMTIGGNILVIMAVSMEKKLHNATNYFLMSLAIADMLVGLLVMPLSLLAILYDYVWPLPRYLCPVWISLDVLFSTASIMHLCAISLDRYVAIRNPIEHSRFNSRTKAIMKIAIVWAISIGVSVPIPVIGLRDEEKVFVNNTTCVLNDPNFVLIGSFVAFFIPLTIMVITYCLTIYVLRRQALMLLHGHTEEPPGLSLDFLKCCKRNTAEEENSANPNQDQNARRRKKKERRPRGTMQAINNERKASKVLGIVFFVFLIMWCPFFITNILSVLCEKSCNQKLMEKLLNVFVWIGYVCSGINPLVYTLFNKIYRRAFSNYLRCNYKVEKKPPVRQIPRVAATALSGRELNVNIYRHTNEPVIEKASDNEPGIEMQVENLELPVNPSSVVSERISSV
5-HT2B receptor, sequence (P41595 whole entry): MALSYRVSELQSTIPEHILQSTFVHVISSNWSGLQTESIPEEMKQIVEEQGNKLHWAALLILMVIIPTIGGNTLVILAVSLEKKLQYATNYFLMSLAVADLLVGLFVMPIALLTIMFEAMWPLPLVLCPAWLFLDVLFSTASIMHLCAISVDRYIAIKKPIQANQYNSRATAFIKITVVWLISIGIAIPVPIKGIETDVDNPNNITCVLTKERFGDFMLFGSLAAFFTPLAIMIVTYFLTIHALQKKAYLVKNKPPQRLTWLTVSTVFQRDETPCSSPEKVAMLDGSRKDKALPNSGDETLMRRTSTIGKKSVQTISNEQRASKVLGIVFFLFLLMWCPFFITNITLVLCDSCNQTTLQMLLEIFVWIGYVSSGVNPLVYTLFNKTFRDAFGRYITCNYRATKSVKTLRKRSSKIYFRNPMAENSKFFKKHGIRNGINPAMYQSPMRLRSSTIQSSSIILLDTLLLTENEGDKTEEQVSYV

IC50 (5-HT2B receptor) [nM]	IC50 (5-HT2A receptor [1]) [nM]	IC50 (5-HT2C receptor) [nM]	Ki (5-HT2A receptor [2]) [nM]	Structure (SMILES)
≥ 100000	10.4	≥ 100000	2.92	Cc1noc(C)c1-c1cc(NC(=O)c2ccc(F)cc2)ccc1OC[C@H]1CCCCN1 [Compound 219, (R)—N-(3-(3,5-dimethylisoxazol-4-yl)-4-(piperidin-2-ylmethoxy)phenyl)-4-fluorobenzamide]
≥ 100000	2.58	≥ 100000	0.907	COc1cccc(C(=O)Nc2ccc(OC[C@H]3CCCCN3)c(-c3c(C)noc3C)c2)c1 [Compound 220, (R)—N-(3-(3,5-dimethylisoxazol-4-yl)-4-(piperidin-2-ylmethoxy)phenyl)-3-methoxybenzamide]
≥ 100000	17.8	≥ 100000	4.22	Cc1noc(C)c1-c1cc(NC(=O)Cc2ccccc2)ccc1OC[C@H]1CCCCN1 [Compound 221, (R)—N-(3-(3,5-dimethylisoxazol-4-yl)-4-(piperidin-2-ylmethoxy)phenyl)-2-phenylacetamide]
≥ 100000	53.4	≥ 100000	4.68	COc1cccc(CC(=O)Nc2ccc(OC[C@H]3CCCCN3)c(-c3c(C)noc3C)c2)c1 [Compound 222, (R)—N-(3-(3,5-dimethylisoxazol-4-yl)-4-(piperidin-2-ylmethoxy)phenyl)-2-(3-methoxyphenyl)acetamide]
≥ 100000	14.7	≥ 100000	1.69	Cc1noc(C)c1-c1cc(NC(=O)Cc2cccc(F)c2)ccc1OC[C@H]1CCCCN1 [Compound 223, (R)—N-(3-(3,5-dimethylisoxazol-4-yl)-4-(piperidin-2-ylmethoxy)phenyl)-2-(3-fluorophenyl)acetamide]
≥ 100000	10.9	≥ 100000	10.4	Cc1noc(C)c1-c1cc(NC(=O)Cc2cncc(F)c2)ccc1OC[C@H]1CCCCN1 [Compound 226, (R)—N-(3-(3,5-dimethylisoxazol-4-yl)-4-(piperidin-2-ylmethoxy)phenyl)-2-(5-fluoropyridin-3-yl)acetamide]
≥ 100000	20.7	≥ 100000	4.72	CCOC1CC1C(=O)Nc1ccc(OC[C@H]2CCCCN2)c(-c2c(C)noc2C)c1 (stereo partly drawn) [Compound 229, N-(3-(3,5-dimethylisoxazol-4-yl)-4-(((R)-piperidin-2-yl)methoxy)phenyl)-2-ethoxycyclopropane-1-carboxamide]
≥ 100000	24.8	≥ 100000	3.86	Cc1nonc1C(=O)Nc1ccc(OC[C@H]2CCCCN2)c(-c2c(C)noc2C)c1 [Compound 232, (R)—N-(3-(3,5-dimethylisoxazol-4-yl)-4-(piperidin-2-ylmethoxy)phenyl)-4-methyl-1,2,5-oxadiazole-3-carboxamide]
≥ 100000	9.5	≥ 100000	1.64	Cc1noc(C)c1-c1cc(NC(=O)Cc2ccns2)ccc1OC[C@H]1CCCCN1 [Compound 233, (R)—N-(3-(3,5-dimethylisoxazol-4-yl)-4-(piperidin-2-ylmethoxy)phenyl)-2-(isothiazol-5-yl)acetamide]
≥ 100000	2.39	≥ 100000	0.657	Cc1noc(C)c1-c1cc(NC(=O)Cc2cnsc2)ccc1OC[C@H]1CCCCN1 [Compound 234, (R)—N-(3-(3,5-dimethylisoxazol-4-yl)-4-(piperidin-2-ylmethoxy)phenyl)-2-(isothiazol-4-yl)acetamide]
≥ 100000	45.2	≥ 100000	3.61	Cc1noc(C)c1-c1cc(NC(=O)C2(F)CC2)ccc1O[C@@H]1CCNC1 [Compound 238, (R)—N-(3-(3,5-dimethylisoxazol-4-yl)-4-(pyrrolidin-3-yloxy)phenyl)-1-fluorocyclopropane-1-carboxamide]
≥ 100000	17.8	≥ 100000	1.36	Cc1noc(C)c1-c1cc(NC(=O)c2c(F)cnn2C)ccc1OC1CNC1 [Compound 240, N-(4-(azetidin-3-yloxy)-3-(3,5-dimethylisoxazol-4-yl)phenyl)-4-fluoro-1-methyl-1H-pyrazole-5-carboxamide]
≥ 100000	35	≥ 100000	6.94	Cc1noc(C)c1-c1cc(NC(=O)c2ccccc2)ccc1OC1CNC1 [Compound 241, N-(4-(azetidin-3-yloxy)-3-(3,5-dimethylisoxazol-4-yl)phenyl)benzamide]
3390	44.2	4920	2.1	Cc1noc(C)c1-c1cc(NC(=O)c2ccc(F)cc2)ccc1OC1CNC1 [Compound 242, N-(4-(azetidin-3-yloxy)-3-(3,5-dimethylisoxazol-4-yl)phenyl)-4-fluorobenzamide]
≥ 100000	16.5	6210	1.07	Cc1noc(C)c1-c1cc(NC(=O)c2cccc(F)c2)ccc1OC1CNC1 [Compound 243, N-(4-(azetidin-3-yloxy)-3-(3,5-dimethylisoxazol-4-yl)phenyl)-3-fluorobenzamide]
≥ 100000	19	≥ 100000	0.85	COc1cccc(C(=O)Nc2ccc(OC3CNC3)c(-c3c(C)noc3C)c2)c1 [Compound 244, N-(4-(azetidin-3-yloxy)-3-(3,5-dimethylisoxazol-4-yl)phenyl)-3-methoxybenzamide]
≥ 100000	37.9	≥ 100000	2.05	Cc1noc(C)c1-c1cc(NC(=O)C2(F)CC2)ccc1OC1CNC1 [Compound 245, N-(4-(azetidin-3-yloxy)-3-(3,5-dimethylisoxazol-4-yl)phenyl)-1-fluorocyclopropane-1-carboxamide]
